Literature values as cited in article PMC10425210 (The Journal of Clinical Investigation, 2023).

Details: cited from earlier work
[1] = 927 mg sc twice-yearly after 600 mg oral on days 1 and 2

CC(C)(C#Cc1ccc(-c2ccc(Cl)c3c(NS(C)(=O)=O)nn(CC(F)(F)F)c23)c([C@H](Cc2cc(F)cc(F)c2)NC(=O)Cn2nc(C(F)(F)F)c3c2C(F)(F)[C@@H]2C[C@H]32)n1)S(C)(=O)=O [LEN, Lenacapavir]
time to reach efficacious target concentration after injection (927 mg sc after oral lead-in): ≤ 2 h
efficacious target plasma concentration [1]: 15.5 ng/mL
efficacious target plasma concentration (human target Ctrough) [1]: 16 nM
